Reference: US6444852B1, “Amines useful in inhibiting gas hydrate formation” (Goldschmidt Chemical Corporation, priority 1999, dated 2002)

Experiments:
[1] = Behavior (solubility/dispersibility) in water and […] brine at 5% concentration; format: physicochemical; details: 5% concentration as is
From the text: The compounds tested are set forth in the following Table 1, CE# denotes a comparative example, whereas S# denotes a compound of the present invention.

[2] = Anti-agglomeration of gas hydrates in presence of crude oil (high-pressure autoclave); details: for State of the hydrates after depressurization: 1.125% solvent-free basis in salt water, 3300 psi, 40° F. 16 hours
Procedure: The comparative test was carried out at a 50:50 oil to water ratio.
The crude oil was heated to 150° F. to dissolve waxes. […] To saturate the liquid with gas, after 30 minutes, the agitation was reduced to 100 rpm and the autoclave was cooled at 10° F./hr to 40° F., at which time, agitation was stopped and the 40° F. temperature was maintained for 16 hours.
After the 16 hour time period, agitation was restarted at 500 rpm to determine the torque required and the experiment was run for 5 hours, if possible. The autoclave was then rapidly depressurized and the state of the hydrates was observed.

| Compound | Behavior in Water [1] | Behavior in […] Brine [1] | State of the hydrates after depressurization ([2]; oil to water 50:50) | State of the hydrates after depressurization ([2]; oil to water 70:30) | Gas hydrates on the walls of the reactor ([2]; 1.125% solvent-free basis, 70:30 and 50:50 ratios) | Effectiveness as anti-agglomeration agent ([2]; low use levels) |
| --- | --- | --- | --- | --- | --- | --- |
| C12-C14 oxypropyl dibutyl amino propyl tributylammonium dibromide [Sample S5] | Soluble | Soluble |  |  |  |  |
| C12-C14 oxypropyl dibutyl ethylammonium ethylsulfate [Sample S4] | Soluble | Soluble |  |  |  |  |
| C12-C14 oxypropyl tributylammonium bromide [Sample S1] |  |  | very small particles which were creamy in texture | very small particles which were creamy in texture | No gas hydrates were observed on the walls of the reactor | highly effective |

Further lines, with some results ahead:

| Behavior in Water [1] | Behavior in […] Brine [1] | Compound | State of the hydrates after depressurization ([2]; oil to water 50:50) | State of the hydrates after depressurization ([2]; oil to water 70:30) | Gas hydrates on the walls of the reactor ([2]; 1.125% solvent-free basis, 70:30 and 50:50 ratios) | Effectiveness as anti-agglomeration agent ([2]; low use levels) |
| --- | --- | --- | --- | --- | --- | --- |
| Insoluble |  | CCCCCCCCCCCCCCCC[N+](CCCC)(CCCC)CCCC.[Br-] [CE2, Hexadecyl tributyl ammonium bromide, reference compound] |  |  |  |  |
| Soluble | Soluble | C12-C14 oxypropyl dibutyl methylammonium methyl sulfate [Sample S2] |  |  |  |  |
